Measured values from patent publication US20040005686A1, “Crystalline structure of human MAPKAP kinase-2” (Pharmacia Corporation, priority 2002, published 2004).
Ends that are not written are not given here.

How the values were obtained:
MK-2 = conditions: cited from earlier work
[1] = biological target: T1, Human MAPKAP kinase-2 (45-371) (human, UniProt P49137 45-371); experiment: X-ray crystallography of MK-2 co-crystallized with AMP-PNP, SC-83598 and MgCl2
T1 construct: Expressed in E. coli as a GST fusion; One copy of the complex per asymmetric unit; also called MK-2(45-371); MK-2
T1 sequence (P49137 45-371 limits assumed): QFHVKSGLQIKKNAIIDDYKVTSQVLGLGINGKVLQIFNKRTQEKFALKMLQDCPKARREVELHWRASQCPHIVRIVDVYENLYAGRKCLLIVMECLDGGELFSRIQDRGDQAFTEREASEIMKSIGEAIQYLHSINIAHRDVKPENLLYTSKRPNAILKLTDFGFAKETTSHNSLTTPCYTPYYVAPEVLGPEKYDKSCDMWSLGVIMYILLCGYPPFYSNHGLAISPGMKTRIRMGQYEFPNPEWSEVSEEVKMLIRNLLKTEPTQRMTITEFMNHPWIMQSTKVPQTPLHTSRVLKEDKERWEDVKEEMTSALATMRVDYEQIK
Procedure: Following this general procedure the co-crystals were grown by sitting drop vapor diffusion. […] This protein solution was mixed in a 1:1 ratio with a reservoir solution containing around 1.6-2.6M ammonium sulfate and 100 mM sodium acetate, the reservoir solution being at a pH of between around 4.2-5.4. Small bipyramidal or prism-shaped crystals appeared in the drops in 1-2 days and grew to as large as 0.4 mm×0.4 mm in about 1 to 3 weeks.
Small bipyramidal or prism-shaped crystals appeared in the drops in 1-2 days and grew to as large as 0.4 mm×0.4 mm over 1-3 weeks.

Molecule | activation of MK-2 (MK-2) | binding result [1]
C[S+]([O-])c1ccc(-c2nc(-c3ccncc3)c(-c3ccc(F)cc3)[nH]2)cc1 (centres unmarked) [SB203580] | inhibit activation of MK-2 | –
KKKALLRQLGVAA (not fully specified) [SC-83598 (13-residue inhibitor peptide)] | – | binds
